Results on 2 compounds are retold here after ChEMBL document CHEMBL4507295 (2021).

Series [1] addresses 5-hydroxytryptamine receptor 1E (Homo sapiens) (UniProt P28566). The settings on record: Compound concentration 10.0 uM.
Series [2] concerns the target T1, 5-hydroxytryptamine receptor 3A (Homo sapiens) (UniProt P46098).
T1 sequence (whole entry): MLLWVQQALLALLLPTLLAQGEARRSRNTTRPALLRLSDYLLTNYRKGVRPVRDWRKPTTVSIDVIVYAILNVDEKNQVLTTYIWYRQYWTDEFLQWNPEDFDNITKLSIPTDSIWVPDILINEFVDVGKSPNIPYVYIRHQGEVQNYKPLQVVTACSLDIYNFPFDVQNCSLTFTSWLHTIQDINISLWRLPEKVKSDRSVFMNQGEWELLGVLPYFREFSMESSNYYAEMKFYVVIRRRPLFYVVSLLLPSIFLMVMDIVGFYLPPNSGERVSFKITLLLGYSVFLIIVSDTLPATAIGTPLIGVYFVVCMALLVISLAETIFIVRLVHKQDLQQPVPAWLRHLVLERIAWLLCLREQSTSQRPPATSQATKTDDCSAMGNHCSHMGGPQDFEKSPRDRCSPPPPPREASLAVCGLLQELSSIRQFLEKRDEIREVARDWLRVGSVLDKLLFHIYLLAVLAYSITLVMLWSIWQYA
Briefly: Inhibition of Serotonin (5-Hydroxytryptamine) 5-HT3 at 10 µM in the Eurofins-Panlabs radioligand binding assay (Eurofins_assay_271910). Further details: ligand concentration 0.69 nM; call rule not given here. The note with it: Compound concentration 10.0 uM.

The target in series [3] is T2, Alpha-2B adrenergic receptor (Homo sapiens) (UniProt P18089).
T2 sequence (whole entry): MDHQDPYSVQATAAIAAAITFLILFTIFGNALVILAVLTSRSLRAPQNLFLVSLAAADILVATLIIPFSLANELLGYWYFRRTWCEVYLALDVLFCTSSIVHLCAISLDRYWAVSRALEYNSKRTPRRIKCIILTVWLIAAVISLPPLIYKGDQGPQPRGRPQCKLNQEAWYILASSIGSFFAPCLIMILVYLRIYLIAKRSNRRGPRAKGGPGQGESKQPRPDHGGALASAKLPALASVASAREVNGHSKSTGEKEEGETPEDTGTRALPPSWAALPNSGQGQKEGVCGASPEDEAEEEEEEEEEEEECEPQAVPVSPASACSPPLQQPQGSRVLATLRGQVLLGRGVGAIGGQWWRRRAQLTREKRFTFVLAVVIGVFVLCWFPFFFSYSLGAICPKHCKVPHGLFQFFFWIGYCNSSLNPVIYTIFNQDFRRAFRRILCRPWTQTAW
The settings on record: Compound concentration 10.0 uM.

Series [4] concerns the target GABA-A receptor; alpha-5/beta-3/gamma-2 (Homo sapiens) (UniProt P18507+P28472+P31644). Kind of series: GABA-alpha5beta3gamma2 (Muscimol binding) Eurofins-Panlabs radioligand binding assay. In kind it is protein-complex assay. Further details: ligand concentration 8 nM. The note with it: Compound concentration 10.0 uM.
Series [5] addresses Macrophage metalloelastase (Homo sapiens) (UniProt P39900). Kind of series: Peptidase, Matrix Metalloproteinase-12 (MMP-12) Eurofins-Panlabs enzyme assay. The settings on record: Compound concentration 10.0 uM.
Series [6] addresses Kappa-type opioid receptor (Homo sapiens) (UniProt P41145). The note with it: Compound concentration 10.0 uM.
For series [7], the target named is cGMP-specific 3',5'-cyclic phosphodiesterase (Homo sapiens) (UniProt O76074). The settings on record: Compound concentration 100.0 uM.
For the next series, the target named is monoamine oxidase MAO-A (Homo sapiens, UniProt P21397). Briefly: Inhibition of Monoamine Oxidase MAO-A at compound concentration of 10.0 uM in the Eurofins-Panlabs enzyme assay (Eurofins_assay_140010). Further details: substrate with concentration 50 uM Kynuramine, incubation time 60 min, incubation temperature 37 C. The settings on record: recombinant human MAO-A expressed in insect Hi5 cells, probe kynuramine (50 uM), compound concentration 10 uM.

Series [8] concerns the target Estrogen receptor (Homo sapiens) (UniProt P03372). The settings on record: Compound concentration 10.0 uM.
The species entered for a further series is Homo sapiens. Briefly: Inhibition of Phosphodiesterase PDE4 at compound concentration of 10.0 uM in the Eurofins-Panlabs enzyme assay (Eurofins_assay_154000). In kind it is protein assay. Further details: substrate with concentration 1.01 uM [3 H]cAMP + cAMP, incubation time 20 min, incubation temperature 25 C. The note with it: Compound concentration […].

In series [9] the target is Cannabinoid receptor 2 (Homo sapiens) (UniProt P34972). The settings on record: Compound concentration 10.0 uM.
Series [10] deals with Glutamate NMDA receptor (Rattus norvegicus) (UniProt P35439+Q00959+Q00960+Q00961+Q62645+Q8VHN2+Q9R1M7). The settings on record: Compound concentration 10.0 uM.
Series [11] deals with Somatostatin receptor type 4 (Homo sapiens) (UniProt P31391). Kind of series: Somatostatin sst4 Eurofins-Panlabs radioligand binding assay. Further details: ligand concentration 0.1 nM, non-specific ligand with concentration 1 µM Somatostatin-14, incubation time 45 min, incubation temperature 25 °C. The settings on record: Compound concentration 10.0 uM.
Series [12] addresses Substance-K receptor (Homo sapiens) (UniProt P21452). Briefly: Inhibition of Tachykinin NK2 at 10 µM in the Eurofins-Panlabs radioligand binding assay (Eurofins_assay_255600). On the set-up: ligand concentration 0.5 nM. The settings on record: Compound concentration 10.0 uM.
In series [13] the target is Neutrophil elastase (Homo sapiens) (UniProt P08246). Briefly: Peptidase, ELA2 (Neutrophil Elastase 2) Eurofins-Panlabs enzyme assay. The note with it: Compound concentration 10.0 uM.
For series [14], the target named is Thyrotropin-releasing hormone receptor (Homo sapiens) (UniProt P34981). Briefly: Thyrotropin Releasing Hormone (TRH) Eurofins-Panlabs radioligand binding assay. The note with it: Rattus norvegicus; Compound concentration 10.0 uM. Further details: ligand concentration 3 nM.
The species entered for a further series is Bos taurus. Kind of series: Phosphodiesterase PDE6 Eurofins-Panlabs enzyme assay. On the set-up: substrate with concentration [3H] cGMP + cGMP, incubation time 20 min, incubation temperature 25 °C. The settings on record: Compound concentration 100.0 uM.
Series [15] has as its target D(3) dopamine receptor (Homo sapiens) (UniProt P35462). The settings on record: Compound concentration 10.0 uM.
In series [16] the target is Mu-type opioid receptor (Homo sapiens) (UniProt P35372). The settings on record: Compound concentration 10.0 uM.
Series [17] addresses Adenosine Transporter (Cavia porcellus) (UniProt H0V4R7+H0UUG1+H0V3Z5). Briefly: Inhibition of Transporter, Adenosine at compound concentration of 10.0 uM in the Eurofins-Panlabs radioligand binding assay (Eurofins_assay_202000). In kind it is protein assay. On the set-up: ligand concentration 0.5 nM, non-specific ligand with concentration 5 uM Nitrobenzylthioinosine, incubation time 30 min, incubation temperature 25 C. The settings on record: Compound concentration 10.0 uM.

In series [18] the target is Type-2 angiotensin II receptor (Homo sapiens) (UniProt P50052). Briefly: Angiotensin AT2 Eurofins-Panlabs radioligand binding assay. The settings on record: Compound concentration 10.0 uM. In kind it is protein assay.
The target of series [19] is Melanocortin receptor 5 (Homo sapiens) (UniProt P33032). Briefly: Inhibition of Melanocortin MC5 at 10 µM in the Eurofins-Panlabs radioligand binding assay (Eurofins_assay_251400). On the set-up: ligand concentration 0.035 nM. The settings on record: Compound concentration 10.0 uM.
For series [20], the target named is hERG (KCNH2) potassium channel (Homo sapiens, UniProt Q12809). Briefly: Potassium Channel hERG Eurofins-Panlabs radioligand binding assay. Further details: ligand concentration 0.05 nM, non-specific ligand with concentration 1 µM L-706,000, incubation time 75 min, incubation temperature 25 °C. The settings on record: HEK-293 cells expressing recombinant human hERG, probe [S35] L-706,000 (radioligand, 0.05 nM), compound concentration 10 uM. (hERG is a cardiac potassium channel; its block is linked to QT prolongation.)

The target of the next series is Caspase-3 (Homo sapiens) (UniProt P42574). Briefly: Peptidase, CASP3 (Caspase 3) Eurofins-Panlabs enzyme assay. The settings on record: Compound concentration 10.0 uM.
Series [21] has as its target Muscarinic acetylcholine receptor M2 (Homo sapiens) (UniProt P08172). The note with it: Compound concentration 10.0 uM.
The target in series [22] is 5-hydroxytryptamine receptor 4 (Homo sapiens) (UniProt Q13639). Kind of series: Inhibition of Serotonin (5-Hydroxytryptamine) 5-HT4 at 10 µM in the Eurofins-Panlabs radioligand binding assay (Eurofins_assay_272000). The note with it: Cavia porcellus; Compound concentration 10.0 uM.
Series [23] has as its target Receptor-type tyrosine-protein phosphatase C (Homo sapiens) (UniProt P08575). Kind of series: Inhibition of Protein Tyrosine Phosphatase, PTPRC (CD45) at 10 µM in the Eurofins-Panlabs enzyme assay (Eurofins_assay_190010). The note with it: Compound concentration 10.0 uM.

Chain of Mu-type opioid receptor (Homo sapiens) (P35372 whole entry): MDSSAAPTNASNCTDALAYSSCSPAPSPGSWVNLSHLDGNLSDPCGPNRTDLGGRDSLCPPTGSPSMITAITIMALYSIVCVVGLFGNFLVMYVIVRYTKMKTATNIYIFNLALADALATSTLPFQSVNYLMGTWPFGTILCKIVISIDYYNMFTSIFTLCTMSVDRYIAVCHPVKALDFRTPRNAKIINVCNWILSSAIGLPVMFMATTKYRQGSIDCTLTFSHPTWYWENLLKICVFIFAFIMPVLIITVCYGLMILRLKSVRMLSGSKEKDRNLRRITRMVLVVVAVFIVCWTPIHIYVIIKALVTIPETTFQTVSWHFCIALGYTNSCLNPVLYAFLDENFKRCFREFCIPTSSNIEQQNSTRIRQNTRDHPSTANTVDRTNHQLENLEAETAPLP
Chain of Neutrophil elastase (Homo sapiens) (P08246 whole entry): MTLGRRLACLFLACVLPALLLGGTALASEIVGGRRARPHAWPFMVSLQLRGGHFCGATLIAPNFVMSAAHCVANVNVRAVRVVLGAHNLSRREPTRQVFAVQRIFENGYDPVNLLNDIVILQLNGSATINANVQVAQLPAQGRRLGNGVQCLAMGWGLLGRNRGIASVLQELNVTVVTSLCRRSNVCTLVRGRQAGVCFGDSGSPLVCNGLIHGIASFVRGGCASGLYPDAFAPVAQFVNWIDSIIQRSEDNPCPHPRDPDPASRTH
Chain of Thyrotropin-releasing hormone receptor (Homo sapiens) (P34981 whole entry): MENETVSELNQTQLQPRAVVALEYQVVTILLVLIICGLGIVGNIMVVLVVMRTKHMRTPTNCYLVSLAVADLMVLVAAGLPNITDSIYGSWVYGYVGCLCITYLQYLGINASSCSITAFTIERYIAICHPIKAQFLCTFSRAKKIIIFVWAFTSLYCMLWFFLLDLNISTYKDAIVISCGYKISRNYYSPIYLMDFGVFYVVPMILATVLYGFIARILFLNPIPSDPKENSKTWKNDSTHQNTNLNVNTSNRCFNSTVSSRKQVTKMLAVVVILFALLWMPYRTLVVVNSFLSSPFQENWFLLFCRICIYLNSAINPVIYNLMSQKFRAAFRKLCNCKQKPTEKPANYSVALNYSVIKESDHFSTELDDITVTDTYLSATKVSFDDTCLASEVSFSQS
Chain of Caspase-3 (Homo sapiens) (P42574 29-175 limits assumed): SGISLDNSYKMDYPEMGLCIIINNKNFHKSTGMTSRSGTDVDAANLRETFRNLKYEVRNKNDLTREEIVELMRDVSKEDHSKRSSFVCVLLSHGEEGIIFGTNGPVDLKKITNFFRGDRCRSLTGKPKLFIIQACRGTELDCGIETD
Chain of Caspase-3 (Homo sapiens) (P42574 176-277 limits assumed): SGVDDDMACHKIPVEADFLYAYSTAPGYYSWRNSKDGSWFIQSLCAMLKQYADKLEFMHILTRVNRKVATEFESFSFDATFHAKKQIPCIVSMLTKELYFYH
Chain of Melanocortin receptor 5 (Homo sapiens) (P33032 whole entry): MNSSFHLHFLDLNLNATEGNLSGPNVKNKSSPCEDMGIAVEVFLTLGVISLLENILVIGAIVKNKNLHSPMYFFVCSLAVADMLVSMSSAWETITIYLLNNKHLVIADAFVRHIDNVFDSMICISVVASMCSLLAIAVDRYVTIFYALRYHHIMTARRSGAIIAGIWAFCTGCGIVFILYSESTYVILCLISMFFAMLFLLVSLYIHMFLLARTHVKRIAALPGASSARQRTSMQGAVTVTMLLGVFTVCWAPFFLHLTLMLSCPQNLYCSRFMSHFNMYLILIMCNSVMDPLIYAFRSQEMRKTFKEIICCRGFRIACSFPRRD
Chain of Muscarinic acetylcholine receptor M2 (Homo sapiens) (P08172 whole entry): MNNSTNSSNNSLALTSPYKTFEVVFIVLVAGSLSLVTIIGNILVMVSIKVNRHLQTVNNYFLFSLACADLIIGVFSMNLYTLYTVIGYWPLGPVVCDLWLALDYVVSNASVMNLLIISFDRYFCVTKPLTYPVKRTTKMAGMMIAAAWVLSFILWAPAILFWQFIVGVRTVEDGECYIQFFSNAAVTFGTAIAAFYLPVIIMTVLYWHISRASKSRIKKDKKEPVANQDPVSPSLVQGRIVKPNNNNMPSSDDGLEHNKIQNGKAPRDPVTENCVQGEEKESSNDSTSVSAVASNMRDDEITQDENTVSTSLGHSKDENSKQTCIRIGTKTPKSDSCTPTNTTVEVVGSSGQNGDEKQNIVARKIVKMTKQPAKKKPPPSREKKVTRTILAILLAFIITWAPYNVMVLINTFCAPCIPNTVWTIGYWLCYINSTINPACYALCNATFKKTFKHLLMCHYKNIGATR
Chain of Somatostatin receptor type 4 (Homo sapiens) (P31391 whole entry): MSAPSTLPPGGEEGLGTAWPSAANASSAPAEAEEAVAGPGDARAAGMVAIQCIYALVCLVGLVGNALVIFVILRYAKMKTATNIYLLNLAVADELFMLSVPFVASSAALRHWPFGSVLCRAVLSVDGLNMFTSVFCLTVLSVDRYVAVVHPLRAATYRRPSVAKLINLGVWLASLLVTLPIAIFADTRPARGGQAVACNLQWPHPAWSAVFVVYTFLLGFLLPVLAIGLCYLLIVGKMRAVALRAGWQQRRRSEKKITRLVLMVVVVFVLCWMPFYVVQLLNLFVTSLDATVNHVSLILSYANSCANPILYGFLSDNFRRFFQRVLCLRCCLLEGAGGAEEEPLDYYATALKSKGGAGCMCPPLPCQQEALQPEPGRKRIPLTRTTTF
Chain of Substance-K receptor (Homo sapiens) (P21452 whole entry): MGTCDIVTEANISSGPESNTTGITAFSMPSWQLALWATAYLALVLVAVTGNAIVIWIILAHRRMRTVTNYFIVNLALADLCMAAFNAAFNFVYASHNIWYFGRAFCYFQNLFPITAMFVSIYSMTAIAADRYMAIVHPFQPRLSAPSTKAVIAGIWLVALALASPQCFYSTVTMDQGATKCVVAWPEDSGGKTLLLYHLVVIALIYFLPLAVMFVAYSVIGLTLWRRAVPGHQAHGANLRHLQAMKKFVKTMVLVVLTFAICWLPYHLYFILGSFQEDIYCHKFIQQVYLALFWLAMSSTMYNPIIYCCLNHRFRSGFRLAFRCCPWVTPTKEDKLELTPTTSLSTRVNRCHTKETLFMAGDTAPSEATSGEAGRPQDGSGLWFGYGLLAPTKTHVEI
Chain of Kappa-type opioid receptor (Homo sapiens) (P41145 whole entry): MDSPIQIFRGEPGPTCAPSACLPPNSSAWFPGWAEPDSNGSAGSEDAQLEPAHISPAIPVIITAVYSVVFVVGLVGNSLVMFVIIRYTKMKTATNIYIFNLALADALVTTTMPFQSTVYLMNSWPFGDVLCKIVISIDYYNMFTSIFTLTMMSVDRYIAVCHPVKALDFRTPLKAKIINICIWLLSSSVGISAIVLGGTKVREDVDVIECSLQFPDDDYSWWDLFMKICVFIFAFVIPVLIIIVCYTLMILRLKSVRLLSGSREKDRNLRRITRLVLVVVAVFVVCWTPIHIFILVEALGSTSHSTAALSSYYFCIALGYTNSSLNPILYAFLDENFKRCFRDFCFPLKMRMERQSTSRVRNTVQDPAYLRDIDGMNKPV
Chain of D(3) dopamine receptor (Homo sapiens) (P35462 whole entry): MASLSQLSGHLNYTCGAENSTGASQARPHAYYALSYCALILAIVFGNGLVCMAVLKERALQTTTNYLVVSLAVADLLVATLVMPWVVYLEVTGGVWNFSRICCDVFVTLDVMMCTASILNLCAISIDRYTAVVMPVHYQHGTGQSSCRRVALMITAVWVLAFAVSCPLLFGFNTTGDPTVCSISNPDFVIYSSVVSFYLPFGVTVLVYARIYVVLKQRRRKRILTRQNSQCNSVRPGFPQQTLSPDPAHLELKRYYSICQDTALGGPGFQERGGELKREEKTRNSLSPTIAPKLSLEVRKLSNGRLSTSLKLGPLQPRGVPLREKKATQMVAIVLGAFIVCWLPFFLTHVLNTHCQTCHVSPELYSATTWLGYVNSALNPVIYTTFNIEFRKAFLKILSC
Chain of hERG (KCNH2) potassium channel (Q12809 whole entry): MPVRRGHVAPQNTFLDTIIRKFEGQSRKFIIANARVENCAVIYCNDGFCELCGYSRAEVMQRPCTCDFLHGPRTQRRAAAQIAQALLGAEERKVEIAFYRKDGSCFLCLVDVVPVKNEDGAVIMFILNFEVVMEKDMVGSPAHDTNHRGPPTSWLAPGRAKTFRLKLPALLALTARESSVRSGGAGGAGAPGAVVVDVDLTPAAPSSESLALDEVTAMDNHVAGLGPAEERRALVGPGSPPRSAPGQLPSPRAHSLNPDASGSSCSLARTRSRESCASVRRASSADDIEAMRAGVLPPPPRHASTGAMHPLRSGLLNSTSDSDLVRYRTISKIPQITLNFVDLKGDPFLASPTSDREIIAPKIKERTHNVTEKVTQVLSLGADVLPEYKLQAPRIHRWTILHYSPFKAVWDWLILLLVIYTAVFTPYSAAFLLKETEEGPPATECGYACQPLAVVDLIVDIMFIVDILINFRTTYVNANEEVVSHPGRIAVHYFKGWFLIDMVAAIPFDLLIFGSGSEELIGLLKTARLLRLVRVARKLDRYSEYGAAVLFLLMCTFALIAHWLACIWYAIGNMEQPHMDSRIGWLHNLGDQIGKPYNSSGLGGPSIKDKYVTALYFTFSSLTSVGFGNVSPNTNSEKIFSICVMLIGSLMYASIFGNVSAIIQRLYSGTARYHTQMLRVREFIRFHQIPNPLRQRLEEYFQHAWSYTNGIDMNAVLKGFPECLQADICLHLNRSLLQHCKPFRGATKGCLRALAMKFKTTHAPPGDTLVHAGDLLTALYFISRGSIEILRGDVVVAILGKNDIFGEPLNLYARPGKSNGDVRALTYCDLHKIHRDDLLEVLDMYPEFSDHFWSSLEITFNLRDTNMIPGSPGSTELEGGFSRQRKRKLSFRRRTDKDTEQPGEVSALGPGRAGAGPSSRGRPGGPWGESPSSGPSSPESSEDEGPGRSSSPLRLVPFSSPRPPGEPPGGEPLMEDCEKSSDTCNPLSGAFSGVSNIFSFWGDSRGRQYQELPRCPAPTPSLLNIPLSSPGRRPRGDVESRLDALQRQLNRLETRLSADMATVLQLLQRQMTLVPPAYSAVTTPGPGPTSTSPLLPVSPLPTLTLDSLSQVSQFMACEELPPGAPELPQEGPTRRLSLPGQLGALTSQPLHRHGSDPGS

Turning to `N#CC1(c2ccccn2)CCN(Cc2cc(C(=O)N3CCCC3)c(=O)n3ccccc23)CC1`, the inhibition (in general, the change of the read-out against control, counted positive when it falls) in [1] was -3.26%.
Turning to `N#CC1(c2ccccn2)CCN(Cc2cc(C(=O)O)c(=O)n3ccccc23)CC1` [MSD-M1PAM], the inhibition in series [2] is 17%; in series [3] it was -8%; in series [4], 11%; in series [5] it was 12%; in series [6] it was 2%; in series [7], 21%. Moreover, the inhibition in series [8] was -1%; in the series filed under Homo sapiens, 8%; in [9], 0%; in series [10], 25%; in [11] it was -1%; in series [12], 9%. Further, the inhibition in [13] was 9%; in series [14] it was 13%; in the series listed under Bos taurus, 5%; in series [15], -7.39%; in series [16] it was 0%; in [17], 2%. In addition, the inhibition in [18] is -2%; in [19], 1%; on Caspase-3 (Homo sapiens) it was 6%; in series [21], 2%; in series [22], 6%; in [23], 13%. Moreover, the inhibition at 60 min, 10 µM on monoamine oxidase MAO-A is 12% (not active). In addition, the inhibition at 75 min, 10 µM in [20] is recorded as 5% (not active).
